Calls of active or inactive are those of the source. A value given as a limit tells only on which side of the number the result lay.

What is called inhibition is the change of the read-out against control, counted positive when it falls. One may read the half-life as the time needed for the level to fall by half in the phase considered. A high value points to slow loss. As a reminder, the Ki is the dissociation constant of the complex between target and ligand, obtained from inhibition or displacement. A lower Ki goes with higher affinity.

Data set [1] deals with COX1 (Prostaglandin G/H synthase 1) (Homo sapiens, UniProt P23219). Kind of data set: Inhibition of COX1 in human platelet rich plasma in assessed as inhibition of ADP-induced platelet aggregation at 10 uM incubated for 5 mins by turbidimetry based Born's method relative to control.
Sequence of COX1 (Prostaglandin G/H synthase 1) (P23219 whole entry): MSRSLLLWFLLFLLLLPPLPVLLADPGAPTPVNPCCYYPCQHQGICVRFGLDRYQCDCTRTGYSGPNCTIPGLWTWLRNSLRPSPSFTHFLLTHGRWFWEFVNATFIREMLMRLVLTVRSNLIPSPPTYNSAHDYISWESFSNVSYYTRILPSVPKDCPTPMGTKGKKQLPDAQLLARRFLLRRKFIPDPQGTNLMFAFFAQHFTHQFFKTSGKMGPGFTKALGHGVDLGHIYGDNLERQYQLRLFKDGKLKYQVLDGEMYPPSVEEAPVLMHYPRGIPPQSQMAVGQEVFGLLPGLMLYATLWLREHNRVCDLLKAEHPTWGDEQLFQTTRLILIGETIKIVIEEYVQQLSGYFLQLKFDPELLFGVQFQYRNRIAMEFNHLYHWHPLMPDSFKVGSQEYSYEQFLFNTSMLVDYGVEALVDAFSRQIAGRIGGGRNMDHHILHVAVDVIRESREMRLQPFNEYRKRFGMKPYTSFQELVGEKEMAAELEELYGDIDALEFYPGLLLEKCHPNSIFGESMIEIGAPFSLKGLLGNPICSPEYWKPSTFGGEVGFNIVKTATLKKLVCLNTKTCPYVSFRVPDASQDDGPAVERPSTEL
Data set [2] can be described thus: Stability in PBS. In kind it is physicochemical. As to conditions: buffer.
Data set [3] in a line: Half life in Sprague-Dawley rat plasma by LC-MS/MS analysis. In kind it is ADME, cell-free.
The target of data set [4] is Carbonic anhydrase 2 (Homo sapiens) (UniProt P00918).
Description: Inhibition of human CA2 pre-incubated for 6 hrs by stopped- flow CO2 hydrase assay method based Cheng-Prusoff equation analysis
Data set [5] addresses Carbonic anhydrase 9 (Homo sapiens) (UniProt Q16790).
Description: Inhibition of human CA9 pre-incubated for 6 hrs by stopped- flow CO2 hydrase assay method based Cheng-Prusoff equation analysis
Data set [6] deals with Carbonic anhydrase 7 (Homo sapiens) (UniProt P43166).
Sequence of Carbonic anhydrase 7 (Homo sapiens) (P43166 whole entry): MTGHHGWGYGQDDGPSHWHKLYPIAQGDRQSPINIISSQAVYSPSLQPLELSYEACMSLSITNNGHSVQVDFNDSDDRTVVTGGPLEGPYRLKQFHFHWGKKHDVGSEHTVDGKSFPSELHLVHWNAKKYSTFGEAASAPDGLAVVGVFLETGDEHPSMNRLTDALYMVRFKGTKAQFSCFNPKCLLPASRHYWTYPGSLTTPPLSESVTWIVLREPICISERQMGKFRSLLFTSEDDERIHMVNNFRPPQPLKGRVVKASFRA
Description: Inhibition of human CA7 pre-incubated for 6 hrs by stopped- flow CO2 hydrase assay method based Cheng-Prusoff equation analysis
The subject of data set [7] is Rattus norvegicus. In words: Antihyperalgesic activity in Sprague-Dawley rat model of Complete freund's adjuvant-induced arthritis assessed as increase in pain threshold of ipsilateral paw at 30 mg/kg, po starting from day 14 after CFA injection and measured at 0 to 60 mins by paw pressure test. It is filed as functional, organism-based.
The nature of data set [8]: Solubility of the compound. In kind it is physicochemical.
Data set [9] deals with Carbonic anhydrase 1 (Homo sapiens) (UniProt P00915).
Sequence of Carbonic anhydrase 1 (Homo sapiens) (P00915 2-261 limits assumed): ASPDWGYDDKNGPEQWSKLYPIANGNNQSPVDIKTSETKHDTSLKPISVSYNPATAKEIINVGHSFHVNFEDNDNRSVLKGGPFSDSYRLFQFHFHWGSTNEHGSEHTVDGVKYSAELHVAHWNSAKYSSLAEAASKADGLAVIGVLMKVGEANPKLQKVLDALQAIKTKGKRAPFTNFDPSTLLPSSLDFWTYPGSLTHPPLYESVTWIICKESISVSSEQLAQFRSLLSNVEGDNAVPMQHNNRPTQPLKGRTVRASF
Description: Inhibition of human CA1 pre-incubated for 6 hrs by stopped- flow CO2 hydrase assay method based Cheng-Prusoff equation analysis
In data set [10] the target is Carbonic anhydrase 4 (Homo sapiens) (UniProt P22748).
Sequence of Carbonic anhydrase 4 (Homo sapiens) (P22748 whole entry): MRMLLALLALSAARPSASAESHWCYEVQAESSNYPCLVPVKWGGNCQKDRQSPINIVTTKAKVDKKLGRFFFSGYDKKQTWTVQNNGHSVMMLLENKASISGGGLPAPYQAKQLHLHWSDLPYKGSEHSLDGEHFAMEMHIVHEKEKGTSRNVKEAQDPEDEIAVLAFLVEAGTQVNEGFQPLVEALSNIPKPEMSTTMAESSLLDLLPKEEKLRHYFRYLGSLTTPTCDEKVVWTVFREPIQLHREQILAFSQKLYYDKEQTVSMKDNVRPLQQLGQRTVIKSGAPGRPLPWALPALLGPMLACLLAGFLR
Description: Inhibition of human CA4 pre-incubated for 6 hrs by stopped- flow CO2 hydrase assay method based Cheng-Prusoff equation analysis
The target in data set [11] is Carbonic anhydrase 12 (Homo sapiens) (UniProt O43570).
Sequence of Carbonic anhydrase 12 (Homo sapiens) (O43570 whole entry): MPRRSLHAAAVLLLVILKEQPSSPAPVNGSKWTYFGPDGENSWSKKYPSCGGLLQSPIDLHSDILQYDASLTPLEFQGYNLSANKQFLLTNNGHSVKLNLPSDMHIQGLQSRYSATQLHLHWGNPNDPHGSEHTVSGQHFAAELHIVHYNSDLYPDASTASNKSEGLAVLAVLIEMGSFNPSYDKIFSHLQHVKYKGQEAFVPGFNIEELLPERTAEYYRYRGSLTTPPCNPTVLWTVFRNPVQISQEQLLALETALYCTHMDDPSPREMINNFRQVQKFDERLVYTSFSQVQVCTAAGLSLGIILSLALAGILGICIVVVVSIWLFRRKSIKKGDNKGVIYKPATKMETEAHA
Description: Inhibition of human CA12 pre-incubated for 6 hrs by stopped- flow CO2 hydrase assay method based Cheng-Prusoff equation analysis
Data set [12] is described as follows: Half life in human plasma by LC-MS/MS analysis. In kind it is ADME, cell-free.
In data set [13] the test system is Rattus norvegicus. In words: Antihyperalgesic activity in Sprague-Dawley rat model of Complete freund's adjuvant-induced arthritis assessed as reduction in difference between weight burdened on contralateral and ipsilateral paw at 30 mg/kg, po starting from day 14 after CFA injection and measured at 30 mins incapacitance test. In kind it is functional, organism-based.

Data set [14] deals with Rattus norvegicus. Kind of data set: Antihyperalgesic activity in Sprague-Dawley rat model of Complete freund's adjuvant-induced arthritis assessed as reduction in difference between weight burdened on contralateral and ipsilateral paw at 10 mg/kg, po starting from day 14 after CFA injection and measured at 15 to 30 mins incapacitance test. In kind it is functional, organism-based.

Data set [15] has as its system Rattus norvegicus. Kind of data set: Antihyperalgesic activity in Sprague-Dawley rat model of Complete freund's adjuvant-induced arthritis assessed as increase in pain threshold of ipsilateral paw at 10 mg/kg, po starting from day 14 after CFA injection and measured at 30 mins by paw pressure test. In kind it is functional.
Data set [16] concerns Rattus norvegicus. In words: Antihyperalgesic activity in Sprague-Dawley rat model of Complete freund's adjuvant-induced arthritis assessed as increase in pain threshold of ipsilateral paw at 10 mg/kg, po starting from day 14 after CFA injection and measured at 15 mins by paw pressure test. It is filed as functional, organism-based.
In data set [17] the test system is Rattus norvegicus. Kind of data set: Antihyperalgesic activity in Sprague-Dawley rat model of Complete freund's adjuvant-induced arthritis assessed as pain threshold of ipsilateral paw at 30 mg/kg, po starting from day 14 after CFA injection and measured at 45 mins by paw pressure test (reference value: 40.1 +/- 0.7 g). It is filed as functional.
Data set [18] has as its system Rattus norvegicus. In words: Antihyperalgesic activity in Sprague-Dawley rat model of Complete freund's adjuvant-induced arthritis assessed as reduction in difference between weight burdened on contralateral and ipsilateral paw at 30 mg/kg, po starting from day 14 after CFA injection and measured at 15 to 45 mins incapacitance test. It is filed as functional, organism-based.

Data set [19] relates to Rattus norvegicus. Kind of data set: Antihyperalgesic activity in Sprague-Dawley rat model of Complete freund's adjuvant-induced arthritis assessed as pain threshold of ipsilateral paw at 30 mg/kg, po starting from day 14 after CFA injection and measured at 30 mins by paw pressure test (reference value: 40.1 +/- 0.7 g). In kind it is functional.
Data set [20] has as its system Rattus norvegicus. In words: Antihyperalgesic activity in Sprague-Dawley rat model of Complete freund's adjuvant-induced arthritis assessed as increase in pain threshold of ipsilateral paw at 3 to 30 mg/kg, po starting from day 14 after CFA injection and measured at 0 to 60 mins by paw pressure test. In kind it is functional, organism-based.
The test system of data set [21] is Rattus norvegicus. Kind of data set: Antihyperalgesic activity in Sprague-Dawley rat model of Complete freund's adjuvant-induced arthritis assessed as reduction in difference between weight burdened on contralateral and ipsilateral paw at 3 to 30 mg/kg, po starting from day 14 after CFA injection and measured at 0 to 60 mins incapacitance test. It is filed as functional, organism-based.

Data set [22] has as its system Rattus norvegicus. Kind of data set: Antihyperalgesic activity in Sprague-Dawley rat model of Complete freund's adjuvant-induced arthritis assessed as reduction in difference between weight burdened on contralateral and ipsilateral paw at 10 mg/kg, po starting from day 14 after CFA injection and measured at 30 mins incapacitance test. It is filed as functional, organism-based.

Data set [23] relates to Rattus norvegicus. Kind of data set: Antihyperalgesic activity in Sprague-Dawley rat model of Complete freund's adjuvant-induced arthritis assessed as effect on pain threshold of ipsilateral paw at 30 mg/kg, po starting from day 14 after CFA injection and measured at 60 mins by paw pressure test. It is filed as functional, organism-based.
Data set [24] deals with Rattus norvegicus. In words: Antihyperalgesic activity in Sprague-Dawley rat model of Complete freund's adjuvant-induced arthritis assessed as pain threshold of ipsilateral paw at 30 mg/kg, po starting from day 14 after CFA injection and measured at 15 mins by paw pressure test (reference value: 40.1 +/- 0.7 g). It is filed as functional.
The subject of data set [25] is Rattus norvegicus. In words: Antihyperalgesic activity in Sprague-Dawley rat model of Complete freund's adjuvant-induced arthritis assessed as increase in pain threshold of ipsilateral paw at 10 mg/kg, po starting from day 14 after CFA injection and measured at 45 mins by paw pressure test. In kind it is functional, organism-based.
The test system of data set [26] is Rattus norvegicus. Kind of data set: Antihyperalgesic activity in Sprague-Dawley rat model of Complete freund's adjuvant-induced arthritis assessed as pain threshold of ipsilateral paw at 3 mg/kg, po starting from day 14 after CFA injection and measured at 30 mins by paw pressure test (reference value: 40.1 +/- 0.7 g). In kind it is functional.
The test system of data set [27] is Rattus norvegicus. In words: Antihyperalgesic activity in Sprague-Dawley rat model of Complete freund's adjuvant-induced arthritis assessed as reduction in difference between weight burdened on contralateral and ipsilateral paw at 3 mg/kg, po starting from day 14 after CFA injection and measured at 30 mins incapacitance test. It is filed as functional, organism-based.

The subject of data set [28] is Rattus norvegicus. Kind of data set: Antihyperalgesic activity in Sprague-Dawley rat model of Complete freund's adjuvant-induced arthritis assessed as reduction in difference between weight burdened on contralateral and ipsilateral paw at 13.4 mg/kg, po starting from day 14 after CFA injection and measured at 15 mins incapacitance test. It is filed as functional, organism-based.

Data set [29] deals with Rattus norvegicus. In words: Antihyperalgesic activity in Sprague-Dawley rat model of Complete freund's adjuvant-induced arthritis assessed as pain threshold of ipsilateral paw at 13.4 mg/kg, po starting from day 14 after CFA injection and measured at 30 mins by paw pressure test (reference value: 40.1 +/- 0.7 g). In kind it is functional.
Data set [30] has as its system Rattus norvegicus. In words: Antihyperalgesic activity in Sprague-Dawley rat model of Complete freund's adjuvant-induced arthritis assessed as pain threshold of ipsilateral paw at 13.4 mg/kg, po starting from day 14 after CFA injection and measured at 15 mins by paw pressure test (reference value: 40.1 +/- 0.7 g). In kind it is functional.

`CC(C(=O)OCCOc1ccc2ccc(=O)oc2c1)c1cccc(C(=O)c2ccccc2)c1` (racemic): the inhibition at 5 min, 10 µM in [1] lay within 5 to 30%. Further, the Stability result in [2] was “Stable”. The results for the half-life in data set [3] and in [12] were 2.1 min and 12 min, respectively. Besides, the Ki was above 10000 nM in data set [4]; 35.4 nM in [5]; above 10000 nM in data set [6]; above 10000 nM in [9]; 6.7 nM in data set [10]; 55.4 nM in data set [11]. Further, the result in the data set on Rattus norvegicus [7] was inactive. The solubility entry in data set [8] is “Insoluble”. Further, the outcome in the data set with Rattus norvegicus [13] was Active.
Regarding `CC(C(=O)OCCOc1ccc2oc(=O)ccc2c1)c1cccc(C(=O)c2ccccc2)c1` (racemic), the inhibition at 5 min, 10 µM in data set [1] lay within 5 to 30%. In [2], the Stability result was “Stable”. The figures for the half-life in data set [3] and in [12] were 4.7 min and 31 min, respectively. Moreover, the result in the data set on Rattus norvegicus [14], with Rattus norvegicus [16], with Rattus norvegicus [18], in the data set with Rattus norvegicus [22] and in the data set with Rattus norvegicus [27] was Active. The Ki is above 10000 nM in [4]; 36.9 nM in data set [5]; above 10000 nM in [6]; above 10000 nM in data set [9]; 2.3 nM in data set [10]; 83.1 nM in [11]. Further, the Activity is 100% with Rattus norvegicus [15]; “<=50 g” in the data set on Rattus norvegicus [17]; “<=64.4 g” in the data set with Rattus norvegicus [19]; “Dose-dependent effect” in the data set on Rattus norvegicus [20]; “Dose-dependent effect” in the data set on Rattus norvegicus [21]; “<=53.8 g” in the data set with Rattus norvegicus [24]. Moreover, the Activity in the data set with Rattus norvegicus [26] came to 49.4 g. For the same compound, the outcome with Rattus norvegicus [23] and in the data set on Rattus norvegicus [25] was inactive.
As for `O=c1ccc2cc(OCCO)ccc2o1`, in the data set with Rattus norvegicus [28], the result was Active. Moreover, the results for the Activity in the data set on Rattus norvegicus [29] and in the data set with Rattus norvegicus [30] were 18.4 g and 51.7 g, respectively.

The record behind these values is ChEMBL document CHEMBL4402543, “Bioisosteric Development of Multitarget Nonsteroidal Anti-Inflammatory Drug-Carbonic Anhydrases Inhibitor Hybrids for the Management of Rheumatoid Arthritis” (J Med Chem, 2020).
